In US7589086B2, “Substituted pyrazolo[3,4-D]pyrimidines as anti-tumor agents” (Universita degli Studi di Siena, priority 2003, dated 2009):

Key:
[1] = tested on: A431 human epidermoid carcinoma cells; test: Cell proliferation assay (MTT), A431; type: cell-based; conditions: compounds 0-100 μM, 72 hours, means ± SEM, NA = not active at 100 μM concentration
Method: (§1) A431 (2×10^4 cells/mL) were incubated in […] DMEM culture medium (BioWhittaker, Vallensbaek, DK). Differently, 8701-BC (2×10^4 cells/mL) were incubated in 100 μL RPMI 1640 culture medium (BioWhittaker, Vallensbaek, DK). Both cell lines were supplemented with 10% foetal calf serum (FCS; BioWhittaker, Vallensbaek, DK) and antibiotics (100 U/mL penicillin and 100 μg/mL streptomycin), at 37° C. in 5% CO2 for 8 hours, to allow adhesion. After adhesion, the medium was replaced with 100 μL medium supplemented with 0.5% FCS. After an overnight incubation, the medium was replaced and 100 μL DMEM with 10% FCS along with different concentrations (0-100 μM) of the studied compounds were added to cell cultures.
(§2) Following 72 hours, cells were treated with 10 μL of the 3-(4,5-dimethylthiazol-2-yl)-[…] (MTT) solution (5 mg/mL). Four hours later, 100 μL of propan-2-ol in a 0.04 M HCl solution were added to dissolve the formazan product. The microplates were read using an ELISA plate reader at 570 nm with a reference wavelength of 630 nm.

[2] = tested on: 8701-BC breast cancer cells; test: Cell proliferation assay (MTT), 8701-BC; type: cell-based, human; conditions: exponentially growing 8701-BC cells, compounds 0-100 μM, 72 hours, means ± SEM, NA = not active at 100 μM concentration
Method: as §1, §2

[3] = target: T1, Src (Tyr416) (Homo sapiens, UniProt P12931); test: Phospho-Src inhibition, immunoblot, 8701-BC cells after EGF stimulation; type: cell-based
T1 construct: subjected to immunoblot using phospho-specific antibodies against Src (Y416) and non pospho-specific Src as control; endogenous in cells; host or cells: 8701-BC breast cancer cells
T1 sequence (P12931 whole entry): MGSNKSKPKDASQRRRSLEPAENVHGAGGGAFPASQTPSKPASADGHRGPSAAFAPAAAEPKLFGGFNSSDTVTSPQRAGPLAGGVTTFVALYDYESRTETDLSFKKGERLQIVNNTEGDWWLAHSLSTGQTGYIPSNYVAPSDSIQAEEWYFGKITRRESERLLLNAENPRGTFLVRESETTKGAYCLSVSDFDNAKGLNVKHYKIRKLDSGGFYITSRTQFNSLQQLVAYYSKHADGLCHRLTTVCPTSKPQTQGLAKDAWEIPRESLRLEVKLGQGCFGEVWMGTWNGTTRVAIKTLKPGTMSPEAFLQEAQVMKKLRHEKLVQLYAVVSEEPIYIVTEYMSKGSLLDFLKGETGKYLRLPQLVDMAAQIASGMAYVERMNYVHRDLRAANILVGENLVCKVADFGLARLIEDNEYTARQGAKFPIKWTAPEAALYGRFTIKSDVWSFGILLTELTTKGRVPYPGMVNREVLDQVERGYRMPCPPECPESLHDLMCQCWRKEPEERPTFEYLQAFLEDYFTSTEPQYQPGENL
Method: FIG. 3. […] Immunoblot analysis was performed using phospho-specific antibodies to Src (Tyr416). Filters were additionally reprobed with specific non-phospho anti-Src antibodies after stripping. Lane 1: cell control; lane 2: cells treated for 15 min with EGF (100 nM); lane 3-7: cells challenged for 3 h in the presence of 10 μM of the specified compound and then treated for 15 min with EGF (100 nM).
Immunoblot analysis was performed using phospho-specific antibodies to Src (Tyr416). Filters were additionally reprobed with specific non-phospho anti-Src antibodies after stripping.
Cells were treated as reported above but the cells were challenged with the compounds for 3 h, and then treated with 100 nM EGF (Cell Signaling Technology, MA, U.S.A.). […] later, cells were harvested and lysed in an appropriate buffer containing 1% Triton X-100. Proteins were quantitated by the BCA method (Pierce Rockford, U.S.A.). Equal amounts of total cellular protein were resolved by SDS-polyacrylamide gel electrophoresis, transferred to nitrocellulose filters and subjected to immunoblot using phospho-specific antibodies against Src (Y416) and non pospho-specific Src as control (Cell Signaling Technology, MA, U.S.A.).

[4] = tested on: K562 cells; test: Cell proliferation assay, K562; type: cell-based, human; conditions: compounds 0-100 μM, means ± SEM
Method: (§3) MEG-01 and K562 (2×10^4 cells/mL) were incubated in 100 μL RPMI 1640 culture medium (BioWhittaker, Vallensbaek, DK), supplemented with 10% foetal calf serum (FCS; BioWhittaker, Vallensbaek, DK) and antibiotics (100 U/mL penicillin and 100 μg/mL streptomycin), at 37° C. in 5% CO2. After an overnight incubation with 100 μL medium supplemented with 0.5% FCS, the medium was replaced and 100 μL RPMI 1640 with 10% FCS along with different concentrations (0-100 μM) of the studied compounds, were added to cell cultures.

[5] = tested on: Meg-01 cells; test: Cell proliferation assay, Meg-01; type: cell-based, human; conditions: compounds 0-100 μM, means ± SEM
Method: as §3

[6] = 10 μM compound 3 h, then 100 nM EGF 15 min, immuno blot gel area

Row | SMILES | IC50 [1] [µM] | IC50 [2] [µM] | other results
1 | COc1cc2ncnc(Nc3cccc(Cl)c3)c2cc1OC [AG1478, reference compound] | 20.2 ± 0.4 |  | 
2 | CSc1nc(N2CCCCC2)c2cnn(CC(Cl)c3ccccc3)c2n1 (centres unmarked) [Compound 1a] | 37.6 ± 0.8 | 67.5 ± 1.2 | 
3 | CSc1nc(N2CCOCC2)c2cnn(CC(Cl)c3ccccc3)c2n1 (centres unmarked) [Compound 1b] | 26.9 ± 0.4 | 64.2 | 
4 | CCOCCNc1nc(SC)nc2c1cnn2CC(Cl)c1ccccc1 (centres unmarked) [Compound 1c] | 32.4 ± 0.6 | 59.8 ± 3.1 | 
5 | CCCCNc1nc(SC)nc2c1cnn2CC(Cl)c1ccccc1 (centres unmarked) [Compound 1d] | 27.4 ± 0.5 | 63.8 ± 2.1 | 
6 | CSc1nc(NCc2ccccc2)c2cnn(CC(Cl)c3ccccc3)c2n1 (centres unmarked) [Compound 1e] | 24.6 ± 0.7 | 53.2 ± 1.2 | 
7 | CSc1nc(NCCc2ccccc2)c2cnn(CC(Cl)c3ccccc3)c2n1 (centres unmarked) [Compound 1f] | 27.1 ± 0.2 | 31.2 | Phospho-Src/Non-phospho-Src ratio (%) ([3]; 10 μM compound 3 h, then 100 nM EGF 15 min, Control + EGF 56, Control 23): 9%; Non-phospho-Src [3, 6]: 168 area units; Phospho-Src (Tyr416) [3, 6]: 15 area units; inhibition of Src phosphorylation compared with PP2 (in words) ([3]; immunoblot, phospho-specific antibodies to Src (Tyr416)): inhibit Src phosphorylation better than the reference compound PP2
8 | CCCNc1nc(SC)nc2c1cnn2CC(Cl)c1ccccc1 (centres unmarked) [Compound 1g] | 32.1 ± 0.5 | 64.1 ± 0.5 | 
9 | CCN(CC)c1nc(SC)nc2c1cnn2CC(Cl)c1ccccc1 (centres unmarked) [Compound 1h] | 70.2 ± 1.4 | 86.9 ± 1.2 | 
10 | CSc1nc(N2CCCC2)c2cnn(CC(Cl)c3ccccc3)c2n1 (centres unmarked) [Compound 1i] | 32.3 ± 0.8 | 56.3 ± 2 | 
11 | CSc1nc(N2CCCCCC2)c2cnn(CC(Cl)c3ccccc3)c2n1 (centres unmarked) [Compound 1j] |  | 54.4 ± 0.8 | 
12 | CSc1nc(NC2CCCCC2)c2cnn(CC(Cl)c3ccccc3)c2n1 (centres unmarked) [Compound 1k] | 43.8 ± 0.7 | 35.3 ± 0.5 | 
13 | CCSc1nc(N2CCOCC2)c2cnn(CC(Cl)c3ccccc3)c2n1 (centres unmarked) [Compound 2b] | 42.3 ± 0.7 | 79.8 ± 3 | 
14 | CCCCNc1nc(SCC)nc2c1cnn2CC(Cl)c1ccccc1 (centres unmarked) [Compound 2c] | 40.2 ± 0.4 | 38.8 ± 0.5 | IC50 [4]: 27.4 ± 0.6 µM
15 | CCCNc1nc(SCC)nc2c1cnn2CC(Cl)c1ccccc1 (centres unmarked) [Compound 2d] | 79.4 ± 1.8 | 28.6 ± 1.6 | 
16 | CCSc1nc(N2CCCC2)c2cnn(CC(Cl)c3ccccc3)c2n1 (centres unmarked) [Compound 2e] | 89.3 ± 1.7 | 72.1 ± 1.7 | 
17 | CCSc1nc(NCc2ccccc2)c2cnn(CC(Cl)c3ccccc3)c2n1 (centres unmarked) [Compound 2f] |  | 42.8 ± 0.8 | 
18 | OC(Cn1ncc2c(N3CCOCC3)ncnc21)c1ccccc1 (centres unmarked) [Compound 3a] | 86.9 ± 2.1 |  | 
19 | CCCCNc1ncnc2c1cnn2CC(O)c1ccccc1 (centres unmarked) [Compound 3b] | 83.2 ± 1.8 |  | 
20 | OC(Cn1ncc2c(N3CCCCC3)ncnc21)c1ccccc1 (centres unmarked) [Compound 3c] | 13.4 ± 0.2 |  | 

Row | SMILES | IC50 [1] [µM] | IC50 [2] [µM] | other results
21 | CCCNc1ncnc2c1cnn2CC(O)c1ccccc1 (centres unmarked) [Compound 3d] | 91.2 ± 1.4 |  | 
22 | OC(Cn1ncc2c(NCc3ccccc3)ncnc21)c1ccccc1 (centres unmarked) [Compound 3e] | 12.7 ± 0.7 |  | 
23 | OC(Cn1ncc2c(NCCc3ccccc3)ncnc21)c1ccccc1 (centres unmarked) [Compound 3f] | 80.1 ± 2.5 | 45.6 ± 0.5 | 
24 | OC(Cn1ncc2c(NCc3ccc(F)cc3)ncnc21)c1ccccc1 (centres unmarked) [Compound 3g] | 95.7 ± 2.3 | 54.4 ± 1.5 | 
25 | C(=Cn1ncc2c(N3CCCCC3)ncnc21)c1ccccc1 [Compound 4a] | 69.3 ± 1.2 |  | 
26 | C(=Cn1ncc2c(N3CCOCC3)ncnc21)c1ccccc1 [Compound 4b] | 59.2 ± 1 | 58.8 ± 0.7 | 
27 | CCCCNc1ncnc2c1cnn2C=Cc1ccccc1 [Compound 4c] | 91.5 ± 2 | 80.5 ± 6.8 | 
28 | C(=Cn1ncc2c(N3CCCCCC3)ncnc21)c1ccccc1 [Compound 4d] | 43.6 ± 1.3 | 93.7 ± 0.6 | 
29 | CCCNc1ncnc2c1cnn2C=Cc1ccccc1 [Compound 4e] | 61.2 ± 1 | 57.2 ± 0.8 | 
30 | CCOCCNc1ncnc2c1cnn2C=Cc1ccccc1 [Compound 4f] |  | 43.4 ± 0.4 | 
31 | C(=Cn1ncc2c(N3CCCC3)ncnc21)c1ccccc1 [Compound 4g] | 63.1 ± 1 | 50.4 ± 0.1 | 
32 | C(=Cn1ncc2c(NC3CCCCC3)ncnc21)c1ccccc1 [Compound 4h] |  | 50.5 ± 1.3 | 
33 | C(=Cn1ncc2c(NCc3ccccc3)ncnc21)c1ccccc1 [Compound 4i] | 11.7 ± 0.1 | 65 ± 0.3 | 
34 | C(=Cn1ncc2c(NCCc3ccccc3)ncnc21)c1ccccc1 [Compound 4j] | 15 ± 1.2 | 64.7 ± 0.6 | 
35 | CCSc1nc(N2CCOCC2)c2cnn(C=Cc3ccccc3)c2n1 [Compound 4k] | 49.8 ± 0.8 |  | IC50 [4]: 75.1 ± 1.7 µM; IC50 [5]: 12.1 ± 1.1 µM
36 | CSc1nc(NCc2ccccc2)c2cnn(C=Cc3ccccc3)c2n1 [Compound 4l] | 39.8 ± 0.6 |  | 
37 | CSc1nc(N2CCCCC2)c2cnn(C=Cc3ccccc3)c2n1 [Compound 4m] | 54.1 ± 0.7 |  | 
38 | CSc1nc(N2CCOCC2)c2cnn(C=Cc3ccccc3)c2n1 [Compound 4n] | 35.7 ± 0.6 |  | 
39 | CCCCNc1ncnc2c1cnn2CC(Br)c1ccccc1 (centres unmarked) [Compound 5d] | 33.6 ± 1.2 |  | IC50 [4]: 34.3 ± 0.9 µM; IC50 [5]: 19.4 ± 0.4 µM
40 | BrC(Cn1ncc2c(NC3CCCCC3)ncnc21)c1ccccc1 (centres unmarked) [Compound 5i] | 28.2 ± 0.4 |  | IC50 [4]: 38.2 ± 0.8 µM; IC50 [5]: 32.7 ± 0.3 µM
